Source: patent US20110077251A1, “NOVEL 17 BETA LUPANE DERIVATIVES” (priority 2009, published 2011)

What was measured:
HIVIIIB [1] = assay: HIV-1 replication in MT2 cell line with 30% human serum (RT activity in supernatant); format: cell-based; conditions: MT2 cells, day 5 after infection, average if tested more than once, read-out: MT2 (HIVIIIB) with human serum IC50 range
Method: (§1) HIV-1 Replication in MT2 cell line with and without 30% human serum: The cells are infected at a Multiciplicity of Infection (MOI) of 0.5 for 3 h and then washed twice with complete media to remove residual virus. Cells are then resuspended at 0.5×10^6/ml in complete medium (RPMI, 10% FBS, 1% sodium pyruvate), and seeded into 96-well plates (6.25×10^4/well). The cells are cultured in the presence or absence of various concentrations of test compounds in serial dilutions for 3 days at 37° C. The test compounds are serially diluted in complete medium supplemented or not with 30% human serum. After 3 days, 100 μL of cultured medium with cells are replaced with 120 μL of freshly diluted test compounds in complete medium containing or not 30% Human serum. The level of HIV-1 replication is determined at days 5 after infection by the presence of viral RT activity in harvested supernatant fluid. The IC50 values for the virus replication are determined by using GRAPHPAD PRISM software.
(§2) The IC50 of the compounds tested in accordance with the HIV replication activity assay MT2 (HIVIIIB) with or without human serum are represented in Table 6.

HIVIIIB [2] = assay: HIV-1 replication in MT2 cell line without human serum (RT activity in supernatant); format: cell-based; conditions: MT2 cells, day 5 after infection, average if tested more than once, read-out: MT2 (HIVIIIB) IC50 range
Method: as §1, §2

[3] = Human immunodeficiency virus 1, 120 h

Structure (SMILES): C=C(C)[C@@H]1CC[C@]2(NC(=O)NC(=O)OC)CC[C@]3(C)[C@H](CC[C@@H]4[C@@]5(C)CC[C@H](OC(=O)CC(C)(C)C(=O)O)C(C)(C)[C@@H]5CC[C@]43C)[C@@H]12 [Cpd 11-1, 3β-O-(3′,3′-Dimethylsuccinyl)-17β-[N′-(methoxycarbonyl)ureido]-28-norlup-20(29)-ene]
- IC50 (HIVIIIB [1]; [3]): < 199 nM
- IC50 (HIVIIIB [2]; [3]): < 199 nM

Structure (SMILES): CC(=O)NC12CCC(C(C)C)C1C1CCC3C4(C)CCC(OC(=O)CC(C)(C)C(=O)O)C(C)(C)C4CCC3(C)C1(C)CC2 (stereo not drawn) [Cpd 22-1, 3β-O-(3′,3′-Dimethylsuccinyl)-17β-acetylamino-28-norlupane]
- IC50 (HIVIIIB [1]): < 199 nM
- IC50 (HIVIIIB [2]): < 199 nM

Structure (SMILES): C=C(C)[C@@H]1CC[C@]2(NS(C)(=O)=O)CC[C@]3(C)[C@H](CC[C@@H]4[C@@]5(C)CC[C@H](OC(=O)CC(C)(C)C(=O)O)C(C)(C)[C@@H]5CC[C@]43C)[C@@H]12 [Cpd 12-1, 3β-O-(3′,3′-Dimethylsuccinyl)-17β-methylsulfonylamino-28-norlup-20(29)-ene]
- IC50 (HIVIIIB [1]; [3]): < 199 nM
- IC50 (HIVIIIB [2]; [3]): < 199 nM

Structure (SMILES): C=C(C)[C@@H]1CC[C@]2(NC(=O)NC(C)(C)C)CC[C@]3(C)[C@H](CC[C@@H]4[C@@]5(C)CC[C@H](OC(=O)CC(C)(C)C(=O)O)C(C)(C)[C@@H]5CC[C@]43C)[C@@H]12 [Cpd 11-2, 3β-O-(3′,3′-Dimethylsuccinyl)-17β-[N′-(tert-butyl)ureido]-28-norlup-20(29)-ene]
- IC50 (HIVIIIB [1]; [3]): < 199 nM
- IC50 (HIVIIIB [2]; [3]): < 199 nM

Structure (SMILES): C=C(C)[C@@H]1CC[C@]2(NC(N)=O)CC[C@]3(C)[C@H](CC[C@@H]4[C@@]5(C)CC[C@H](OC(=O)CC(C)(C)C(=O)O)C(C)(C)[C@@H]5CC[C@]43C)[C@@H]12 [Cpd 11-10, 3β-O-(3′,3′-Dimethylsuccinyl)-17β-ureido-28-norlup-20(29)-ene]
- IC50 (HIVIIIB [1]; [3]): < 199 nM
- IC50 (HIVIIIB [2]; [3]): < 199 nM

Structure (SMILES): C=C(C)[C@@H]1CC[C@]2(NC(=O)C3CC3)CC[C@]3(C)[C@H](CC[C@@H]4[C@@]5(C)CC[C@H](OC(=O)CC(C)(C)C(=O)O)C(C)(C)[C@@H]5CC[C@]43C)[C@@H]12 [Cpd 13-9, 17β-(Cyclopropanecarbonyl-amino)-3β-O-(3′,3′-dimethylsuccinyl)-28-norlup-20(29)-ene]
- IC50 (HIVIIIB [1]; [3]): < 199 nM
- IC50 (HIVIIIB [2]; [3]): < 199 nM

Structure (SMILES): C=C(C)[C@@H]1CC[C@]2(NC(=O)NC)CC[C@]3(C)[C@H](CC[C@@H]4[C@@]5(C)CC[C@H](OC(=O)CC(C)(C)C(=O)O)C(C)(C)[C@@H]5CC[C@]43C)[C@@H]12 [Cpd 11-7, 3β-O-(3′,3′-Dimethylsuccinyl)-17β-[N′-(methyl)ureido]-28-norlup-20(29)-ene]
- IC50 (HIVIIIB [1]; [3]): < 199 nM
- IC50 (HIVIIIB [2]; [3]): < 199 nM

Structure (SMILES): C=C(C)[C@@H]1CC[C@]2(NC(=O)OC)CC[C@]3(C)[C@H](CC[C@@H]4[C@@]5(C)CC[C@H](OC(=O)CC(C)(C)C(=O)O)C(C)(C)[C@@H]5CC[C@]43C)[C@@H]12 [Cpd 14-1, 3β-O-(3′,3′-Dimethylsuccinyl)-17β-methoxycarbonylamino-28-norlup-20(29)-ene]
- IC50 (HIVIIIB [1]; [3]): < 199 nM
- IC50 (HIVIIIB [2]; [3]): < 199 nM

Structure (SMILES): C=C(C)[C@@H]1CC[C@]2(NC(=O)C(C)C)CC[C@]3(C)[C@H](CC[C@@H]4[C@@]5(C)CC[C@H](OC(=O)CC(C)(C)C(=O)O)C(C)(C)[C@@H]5CC[C@]43C)[C@@H]12 [Cpd 13-10, 3β-O-(3′,3′-Dimethylsuccinyl)-17β-isobutyrylamino-28-norlup-20(29)-ene]
- IC50 (HIVIIIB [1]; [3]): < 199 nM
- IC50 (HIVIIIB [2]; [3]): < 199 nM

Structure (SMILES): C=C(C)[C@@H]1CC[C@]2(NC(=O)C(=O)N(C)C)CC[C@]3(C)[C@H](CC[C@@H]4[C@@]5(C)CC[C@H](OC(=O)CC(C)(C)C(=O)O)C(C)(C)[C@@H]5CC[C@]43C)[C@@H]12 [Cpd 13-3, 17β-Dimethylaminooxalyl-amino-3β-O-(3′,3′-dimethylsuccinyl)-28-norlup-20(29)-ene]
- IC50 (HIVIIIB [1]; [3]): < 199 nM
- IC50 (HIVIIIB [2]; [3]): < 199 nM

Structure (SMILES): C=C(C)[C@@H]1CC[C@]2(NC(C)=O)CC[C@]3(C)[C@H](CC[C@@H]4[C@@]5(C)CC[C@H](OC(=O)CC(C)(C)C(=O)O)C(C)(C)[C@@H]5CC[C@]43C)[C@@H]12 [Cpd 13-1, 17β-Acetylamino-3β-O-(3′,3′-dimethylsuccinyl)-28-norlup-20(29)-ene]
- IC50 (HIVIIIB [1]; [3]): < 199 nM
- IC50 (HIVIIIB [2]; [3]): < 199 nM

Structure (SMILES): C=C(C)[C@@H]1CC[C@]2(NC(=O)Cc3ccccc3)CC[C@]3(C)[C@H](CC[C@@H]4[C@@]5(C)CC[C@H](OC(=O)CC(C)(C)C(=O)O)C(C)(C)[C@@H]5CC[C@]43C)[C@@H]12 [Cpd 13-6, 3β-O-(3′,3′-Dimethylsuccinyl)-17β-phenylacetylamino-28-norlup-20(29)-ene]
- IC50 (HIVIIIB [1]; [3]): < 199 nM
- IC50 (HIVIIIB [2]; [3]): < 199 nM

Structure (SMILES): C=C(C)[C@@H]1CC[C@]2(NC(=O)N3CCOCC3)CC[C@]3(C)[C@H](CC[C@@H]4[C@@]5(C)CC[C@H](OC(=O)CC(C)(C)C(=O)O)C(C)(C)[C@@H]5CC[C@]43C)[C@@H]12 [Cpd 11-8, 3β-O-(3′,3′-Dimethylsuccinyl)-17β-[(morpholine-4-carbonyl)-amino]-28-norlup-20(29)-ene]
- IC50 (HIVIIIB [1]; [3]): < 199 nM
- IC50 (HIVIIIB [2]; [3]): < 199 nM

Structure (SMILES): C=C(C)[C@@H]1CC[C@]2(NC(=O)N3CCN(C)CC3)CC[C@]3(C)[C@H](CC[C@@H]4[C@@]5(C)CC[C@H](OC(=O)CC(C)(C)C(=O)O)C(C)(C)[C@@H]5CC[C@]43C)[C@@H]12 [Cpd 11-9, 3β-O-(3′,3′-Dimethylsuccinyl)-17β-[(4-methyl-piperazine-1-carbonyl)-amino]-28-norlup-20(29)-ene]
- IC50 (HIVIIIB [1]; [3]): < 199 nM
- IC50 (HIVIIIB [2]; [3]): < 199 nM

Structure (SMILES): C=C(C)[C@@H]1CC[C@]2(NC(=O)NCc3ccccc3)CC[C@]3(C)[C@H](CC[C@@H]4[C@@]5(C)CC[C@H](OC(=O)CC(C)(C)C(=O)O)C(C)(C)[C@@H]5CC[C@]43C)[C@@H]12 [Cpd 11-6, 3β-O-(3′,3′-Dimethylsuccinyl)-17β-[N′-(benzyl)ureido]-28-norlup-20(29)-ene]
- IC50 (HIVIIIB [1]; [3]): < 199 nM
- IC50 (HIVIIIB [2]; [3]): < 199 nM

Structure (SMILES): C=C(C)[C@@H]1CC[C@]2(NC(=O)OCc3ccccc3)CC[C@]3(C)[C@H](CC[C@@H]4[C@@]5(C)CC[C@H](OC(=O)CC(C)(C)C(=O)O)C(C)(C)[C@@H]5CC[C@]43C)[C@@H]12 [Cpd 14-2, 3β-O-(3′,3′-Dimethylsuccinyl)-17β-benzyloxycarbonylamino-28-norlup-20(29)-ene]
- IC50 (HIVIIIB [2]; [3]): < 199 nM

Structure (SMILES): C=C(C)[C@@H]1CC[C@]2(NC(=O)OC(C)(C)C)CC[C@]3(C)[C@H](CC[C@@H]4[C@@]5(C)CC[C@H](OC(=O)CC(C)(C)C(=O)O)C(C)(C)[C@@H]5CC[C@]43C)[C@@H]12 [Cpd 8-1, 3β-O-(3′,3′-Dimethylsuccinyl)-17β-tert-butyloxycarbonylamino-28-norlup-20(29)-ene]
- IC50 (HIVIIIB [2]; [3]): < 199 nM

Structure (SMILES): C=C(C)[C@@H]1CC[C@]2(NC(=O)c3ccncc3)CC[C@]3(C)[C@H](CC[C@@H]4[C@@]5(C)CC[C@H](OC(=O)CC(C)(C)C(=O)O)C(C)(C)[C@@H]5CC[C@]43C)[C@@H]12 [Cpd 13-8, 3β-O-(3′,3′-Dimethylsuccinyl)-17β-(pyridin-4-ylcarbonyl)-amino-28-norlup-20(29)-ene]
- IC50 (HIVIIIB [1]; [3]): 200 to 999 nM
- IC50 (HIVIIIB [2]; [3]): < 199 nM

Structure (SMILES): C=C(C)[C@@H]1CC[C@]2(NC(=O)CC(C)(C)CC(=O)O)CC[C@]3(C)[C@H](CC[C@@H]4[C@@]5(C)CC[C@H](OC(=O)CC(C)(C)CC(=O)O)C(C)(C)[C@@H]5CC[C@]43C)[C@@H]12 [Cpd 13-5, 3β-O,17β-N-bis(3′,3′-dimethylglutaryl)-28-norlup-20(29)-ene]
- IC50 (HIVIIIB [2]; [3]): < 199 nM

Structure (SMILES): C=C(C)[C@@H]1CC[C@]2(NC(=O)CCN3CCCC3)CC[C@]3(C)[C@H](CC[C@@H]4[C@@]5(C)CC[C@H](OC(=O)CC(C)(C)C(=O)O)C(C)(C)[C@@H]5CC[C@]43C)[C@@H]12 [Cpd 13-11, 3β-O-(3′,3′-Dimethylsuccinyl)-17β-(3-pyrrolidin-1-yl-propionylamino)-28-norlup-20(29)-ene]
- IC50 (HIVIIIB [1]; [3]): < 199 nM
- IC50 (HIVIIIB [2]; [3]): < 199 nM
